biological target: Tyrosine-protein phosphatase non-receptor type 5 (Homo sapiens) (UniProt P54829); assay: PTPN5 (STEP) phosphatase inhibitors, biochemical, human, DiFMUP fluorescence (AID 400); conditions: recombinant PTPN5, DiFMUP fluorescence phosphatase assay; at 50 µM; enzyme 6.5 ng/mL; DTT 5 mM; active compounds read high
Sequence (P54829 whole entry, looked up): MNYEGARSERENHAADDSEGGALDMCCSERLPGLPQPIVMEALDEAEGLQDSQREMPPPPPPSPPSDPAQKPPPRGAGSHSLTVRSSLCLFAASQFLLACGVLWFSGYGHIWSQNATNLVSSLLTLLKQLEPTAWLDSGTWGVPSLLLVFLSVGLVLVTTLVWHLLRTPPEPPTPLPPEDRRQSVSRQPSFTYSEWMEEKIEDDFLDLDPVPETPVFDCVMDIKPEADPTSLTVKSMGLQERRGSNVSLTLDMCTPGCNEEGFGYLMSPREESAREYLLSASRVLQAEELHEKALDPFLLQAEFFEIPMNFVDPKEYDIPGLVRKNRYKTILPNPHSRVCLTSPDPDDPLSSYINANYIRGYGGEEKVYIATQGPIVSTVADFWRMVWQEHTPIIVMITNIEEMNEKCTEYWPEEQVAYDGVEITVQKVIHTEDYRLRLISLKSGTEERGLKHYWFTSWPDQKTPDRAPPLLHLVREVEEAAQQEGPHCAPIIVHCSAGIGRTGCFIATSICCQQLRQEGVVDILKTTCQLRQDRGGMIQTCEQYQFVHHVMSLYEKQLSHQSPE

Q: For `COc1cc[n+](C(=O)N(C)C)cc1`, which inhibition is on record?
A: 14%

Q: `CC1(C)OC(=O)C(=Cc2ccc(Br)o2)C(=O)O1` was tested. Which inhibition did it give?
A: 7%

Q: `NC1=NC(=O)/C(=C/C=C/c2ccc([N+](=O)[O-])o2)S1` was tested. Which inhibition did it give?
A: 75.5%

Q: How did the inhibition turn out when `Oc1c(Cl)c(Cl)c(O)c2nsnc12` was run?
A: 33%

Q: How did the inhibition turn out when `CC(=O)c1ccc2c(c1)C1C=CCC1C(C(=O)O)N2` (stereo not given) was run?
A: 46%

Q: With `O=C1NC(=S)S/C1=C\C=C\c1ccc([N+](=O)[O-])o1` as the molecule, how does the inhibition read?
A: 88%

Q: For `O=C(O)C1Nc2c(O)cccc2C2C=CCC12` (stereo not given), which inhibition is on record?
A: 17%

same assay, conditions: recombinant PTPN5, DiFMUP fluorescence phosphatase assay; at 50 µM; enzyme 20 ng/mL; DTT 1 mM; active compounds read high

Q: How did the inhibition turn out when `Cn1nc(-c2ccccc2)nc2c(=O)n(C)c(=O)nc1-2` was run?
A: 95%

same assay, conditions: recombinant PTPN5, DiFMUP fluorescence phosphatase assay; at 50 µM; enzyme 87 ng/mL; DTT 5 mM; active compounds read high

Q: `CC(C)(C)NC(=O)CCN(/N=C/c1cc(C(=O)O)ccc1O)C1=NS(=O)(=O)c2ccccc21` was tested. Which inhibition did it give?
A: 30%

Q: How did the inhibition turn out when `O=C(O)c1ccc(O)c(C=Nc2ccc3oc(-c4cccc(Cl)c4Cl)nc3c2)c1` was run?
A: 33%

Q: How did the inhibition turn out when `CC(C)C(=O)Nc1ccc(O)cc1C(=O)O` was run?
A: 29%

Q: With `COc1ccccc1C(=O)Nc1ccc(O)cc1C(=O)O` as the molecule, how does the inhibition read?
A: 33%

Q: How did the inhibition turn out when `O=C(O)c1ccc(O)cn1.OO.[O]=[V]` was run?
A: 63%

Q: For `O=C(O)c1ccc(O)c(C=Nc2cccc(-c3nc4ccccc4o3)c2)c1`, which inhibition is on record?
A: 38%

Q: Which inhibition does the source give for `O=C([O-])c1ccccn1.OO.OO.[K+].[K+].[O]=[V]` here?
A: 90%

Q: How did the inhibition turn out when `O=C(O)c1ccc(O)c(/C=N/N(CCO)C2=NS(=O)(=O)c3ccccc32)c1` was run?
A: 43%

Q: `OO.OO.[K+].[O]=[V].c1cnc2c(c1)ccc1cccnc12` was tested. Which inhibition did it give?
A: 72%

Q: With `Cc1ccc2nc(-c3cc(N=Cc4cc(C(=O)O)ccc4O)ccc3O)[nH]c2c1` as the molecule, how does the inhibition read?
A: 53%

Q: For `O=C(O)c1ccc([O-])cn1.OO.OO.[K+].[K+].[O]=[V]`, which inhibition is on record?
A: 90%

Q: Which inhibition does the source give for `F` here?
A: 91%

Q: For `COc1ccc(-c2nc3cc(N=Cc4cc(C(=O)O)ccc4O)ccc3o2)cc1`, which inhibition is on record?
A: 83%

Q: How did the inhibition turn out when `OO.OO.[K+].[O]=[V].c1ccc(-c2ccccn2)nc1` was run?
A: 67%

Q: With `O=C(O)c1ccc(O)c(C=Nc2ccc3oc(-c4ccc(F)cc4Cl)nc3c2)c1` as the molecule, how does the inhibition read?
A: 70%

same assay, conditions: recombinant PTPN5, DiFMUP fluorescence phosphatase assay; dose 33 (unit in doubt); enzyme 28.9 ng/mL; DTT 1 mM; active compounds read high

Q: Which inhibition does the source give for `[NH-]CO.[NH-]CO.[NH-]CO.[NH-]CO.[O]=[V][O][V]=[O]` here?
A: 43%

same assay, conditions: recombinant PTPN5, DiFMUP fluorescence phosphatase assay; dose 200 (unit in doubt); enzyme 20 ng/mL; DTT 1 mM; active compounds read high

Q: For `CCCCOC(OCCCC)(OCCCC)OCCCC`, which inhibition is on record?
A: 99.4%

Q: For `O=P(O)(O)OP(=O)(O)O`, which inhibition is on record?
A: 31.6%

Q: With `Cn1nc(/C=C/c2ccccc2)nc2c(=O)n(C)c(=O)nc1-2` as the molecule, how does the inhibition read?
A: 70%

Q: Which inhibition does the source give for `CCn1nc(-c2ccc(Cl)cc2)nc2c(=O)n(C)c(=O)nc1-2` here?
A: 67.5%

Q: With `CCn1nc(/C=C/c2ccccc2)[n+](=O)c2c(=O)n(C)c(=O)[nH]c21` as the molecule, how does the inhibition read?
A: 54%

Q: For `Cn1c(=O)[nH]c2c(c1=O)[n+](=O)c(/C=C/c1ccccc1)nn2C`, which inhibition is on record?
A: 52%
